System: 186277-243-T-J2-PDC complex spheroid viability
Test: Anticancer human tumor 186277-243-T-J2-PDC patient-derived colon adenocarcinoma cell line growth inhibition [GQUAD]
Settings: for IC50: curve of first compound; for viability, T/C: stronger effect = lower value
From the text: DNA G-quadruplex Stabilizer Agents in Combinations in Complex Spheroids
A high-throughput screen of multi-cell type tumor spheroids was designed to identify active combinations of DNA G-quadruplex stabilizer agents and targeted small molecules. Complex spheroids include a stromal component modeled by human endothelial cells (HUVEC) and fibroblasts modeled by human mesenchymal stem cells (MSCs). The concentration ranges selected for each drug and investigational agent were based upon clinically achievable concentrations if the clinical Cmax of the agent was known.
Compounds. The drugs and investigational agents: pidnarulex (CX-5461; NSC782164), APTO-253 (NSC789042), BRACO-19 (NSC847499), peposertib (NSC802822), ceralasertib (NSC780249), elimusertib (NSC800525), camonsertib (NSC841442), AZD-1390 (NSC803789), olaparib (NSC753686), talazoparib (NSC767125), ART-558 (NSC835418), sotorasib (NSC818433), MRTX-1133 (NSC836407), SN-38 (NSC673596), topotecan (NSC609699), etoposide (NSC141540), doxorubicin (NSC123127), gemcitabine (NSC613327), 5-fluorouracil (NSC19893), paclitaxel (NSC125973), vemurafenib (NSC761431), panobinostat (NSC761190), R-306465 (JNJ-16241199; NSC773264), adavosertib (NSC754352), TP-3654 (NSC805149), carboplatin (NSC241240), KSQ-4279 (NSC840948), and staurosporine (NSC755774) were obtained from the National Cancer Institute (NCI) Developmental Therapeutics Program Chemical Repository (34). The FDA-approved anticancer drug set is available from the NCI Developmental Therapeutics Program. […] The stock solutions were prepared in dimethyl sulfoxide (DMSO, Sigma-Aldrich, St. Louis, MO, cat. D2650) at 800-fold the tested concentration and stored at -70 degrees C prior to their use. All drugs and investigational agents were tested over a range starting from a high concentration at or near the clinical Cmax and decreasing in half-log increments. If the clinical Cmax for an agent had not been determined, the highest concentration tested was 10 microM.
2.3 Cell Culture. All cells were maintained in an incubator at 37 degrees C and 5% CO2 with 95% humidity. The PDC lines were cultured according to standard operating procedures established by the NCI PDMR. All PDCs were thawed and cultured in Matrigel-coated flasks prepared with a working solution of 1X Ham's F-12 nutrient mix, without supplementation (Invitrogen, cat. 11765054), 100 U/mL penicillin-streptomycin (Invitrogen, cat. 15140122), and 2.5% Matrigel (Corning Inc., cat. 354248) for the first three passages. The 857933-349-R-J2-PDC line was cultured in 6C/Colon 1B media, which includes advanced DMEM/F-12 (Thermo Fisher Scientific, cat. 12634028), 10 mM HEPES (Thermo Fisher Scientific, cat. 15630080), 1X GlutaMAX supplement (Thermo Fisher Scientific, cat. 35050061), 0.1 mg/mL primocin (InvivoGen, cat. ant-pm-2), 10% defined fetal bovine serum, heat inactivated (HyClone Laboratories Inc., cat. SH30070.03HI), 50% L-WRN conditioned media (ATCC, cat. CRL-3276), 1.25 mM N-Acetyl-L-cysteine (Sigma-Aldrich, cat. A9165), 10 mM nicotinamide (Sigma-Aldrich, cat. N0636), 1X B-27 supplement (Thermo Fisher Scientific, cat. 17504044), 1X N-2 supplement (Thermo Fisher Scientific, cat. 17502048), 10 microM Y-27632 dihydrochloride (Tocris Bioscience, cat. 1254), and 50 ng/mL human EGF recombinant protein (Thermo Fisher Scientific, cat. PHG0311). The 485176-168-R4-J1-PDC line was cultured in Panc media, which includes all 6C/Colon 1B media components plus 100 ng/mL human FGF-10 (Thermo Fisher Scientific, cat. 100-26), 500 nM SB-431542 (Selleckchem, cat. S1067), and gastrin (Tocris, cat. 3006).
[…]

[1] = second compound 0.0316 µM, first compound 0.0316 µM
[2] = second compound 0.0316 µM, first compound 0.316 µM
[3] = second compound 0.1 µM, first compound 0.0316 µM
[4] = second compound 0.1 µM, first compound 0.316 µM
[5] = second compound 0.316 µM, first compound 0.0316 µM
[6] = second compound 0.316 µM, first compound 0.316 µM
[7] = second compound 1 µM, first compound 0.0316 µM
[8] = second compound 1 µM, first compound 0.316 µM
[9] = second compound 3.16 µM, first compound 0.0316 µM
[10] = second compound 3.16 µM, first compound 0.316 µM
[11] = second compound 10 µM, first compound 0.0316 µM
[12] = second compound 10 µM, first compound 0.316 µM
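Also: spheroids exposed to drugs for 7 days.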
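For viability, T/C in this document: 100% = DMSO vehicle control viability.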

**Q.** Cn1ncnc1[C@H]1c2n[nH]c(=O)c3cc(F)cc(c23)N[C@@H]1c1ccc(F)cc1 + Cc1cnc(CNC(=O)c2c(=O)c3ccc(N4CCCN(C)CC4)nc3n3c2sc2ccccc23)cn1 was tested. Which IC50 (second compound 0.0316 µM) did it give?
**A.** > 316 nM

**Q.** And the IC50 (second compound 0.1 µM)?
**A.** > 316 nM

**Q.** And the IC50 (second compound 0.316 µM)?
**A.** > 316 nM

**Q.** What about the IC50 (second compound 1 µM) of the same compound?
**A.** > 316 nM

**Q.** What about the IC50 (second compound 3.16 µM) of the same compound?
**A.** > 316 nM

**Q.** What about the IC50 (second compound 10 µM) of the same compound?
**A.** < 0.999 nM

**Q.** What about the viability, T/C (second compound 0.0316 µM, first compound 0.000999 µM) of the same compound?
**A.** 107%

**Q.** And the viability, T/C (second compound 0.0316 µM, first compound 0.00316 µM)?
**A.** 101%

**Q.** And the viability, T/C (second compound 0.0316 µM, first compound 0.00999 µM)?
**A.** 108%

**Q.** And the viability, T/C [1]?
**A.** 78.6%

**Q.** What about the viability, T/C (second compound 0.0316 µM, first compound 0.0999 µM) of the same compound?
**A.** 85.2%

**Q.** What about the viability, T/C [2] of the same compound?
**A.** 78.2%

**Q.** And the viability, T/C (second compound 0.1 µM, first compound 0.000999 µM)?
**A.** 102%

**Q.** And the viability, T/C (second compound 0.1 µM, first compound 0.00316 µM)?
**A.** 103%

**Q.** And the viability, T/C (second compound 0.1 µM, first compound 0.00999 µM)?
**A.** 84.3%

**Q.** And the viability, T/C [3]?
**A.** 94.8%

**Q.** What about the viability, T/C (second compound 0.1 µM, first compound 0.0999 µM) of the same compound?
**A.** 85.5%

**Q.** And the viability, T/C [4]?
**A.** 71.6%

**Q.** And the viability, T/C (second compound 0.316 µM, first compound 0.000999 µM)?
**A.** 75.7%

**Q.** And the viability, T/C (second compound 0.316 µM, first compound 0.00316 µM)?
**A.** 79.2%

**Q.** What about the viability, T/C (second compound 0.316 µM, first compound 0.00999 µM) of the same compound?
**A.** 80.1%

**Q.** What about the viability, T/C [5] of the same compound?
**A.** 77%

**Q.** What about the viability, T/C (second compound 0.316 µM, first compound 0.0999 µM) of the same compound?
**A.** 73.1%

**Q.** What about the viability, T/C [6] of the same compound?
**A.** 70.3%

**Q.** And the viability, T/C (second compound 1 µM, first compound 0.000999 µM)?
**A.** 65.6%

**Q.** And the viability, T/C (second compound 1 µM, first compound 0.00316 µM)?
**A.** 57.3%

**Q.** What about the viability, T/C (second compound 1 µM, first compound 0.00999 µM) of the same compound?
**A.** 59.2%

**Q.** And the viability, T/C [7]?
**A.** 59.4%

**Q.** What about the viability, T/C (second compound 1 µM, first compound 0.0999 µM) of the same compound?
**A.** 62.5%

**Q.** And the viability, T/C [8]?
**A.** 52.8%

**Q.** What about the viability, T/C (second compound 3.16 µM, first compound 0.000999 µM) of the same compound?
**A.** 48.1%

**Q.** And the viability, T/C (second compound 3.16 µM, first compound 0.00316 µM)?
**A.** 55.6%

**Q.** And the viability, T/C (second compound 3.16 µM, first compound 0.00999 µM)?
**A.** 52.5%

**Q.** And the viability, T/C [9]?
**A.** 51.4%

**Q.** What about the viability, T/C (second compound 3.16 µM, first compound 0.0999 µM) of the same compound?
**A.** 54%

**Q.** What about the viability, T/C [10] of the same compound?
**A.** 48.7%

**Q.** And the viability, T/C (second compound 10 µM, first compound 0.000999 µM)?
**A.** 46%

**Q.** What about the viability, T/C (second compound 10 µM, first compound 0.00316 µM) of the same compound?
**A.** 42.1%

**Q.** And the viability, T/C (second compound 10 µM, first compound 0.00999 µM)?
**A.** 43.4%

**Q.** And the viability, T/C [11]?
**A.** 46.9%

**Q.** What about the viability, T/C (second compound 10 µM, first compound 0.0999 µM) of the same compound?
**A.** 55.7%

**Q.** And the viability, T/C [12]?
**A.** 42.5%

**Q.** Which IC50 (second compound 0.0316 µM) does the source give for O=C(c1cc(Cc2n[nH]c(=O)c3ccccc23)ccc1F)N1CCN(C(=O)C2CC2)CC1 + Cc1cnc(CNC(=O)c2c(=O)c3ccc(N4CCCN(C)CC4)nc3n3c2sc2ccccc23)cn1 here?
**A.** > 10000 nM

**Q.** What about the IC50 (second compound 0.1 µM) of the same compound?
**A.** 5010 nM

**Q.** And the IC50 (second compound 0.316 µM)?
**A.** > 10000 nM

**Q.** What about the IC50 (second compound 1 µM) of the same compound?
**A.** < 31.6 nM

**Q.** What about the IC50 (second compound 3.16 µM) of the same compound?
**A.** < 31.6 nM

**Q.** And the IC50 (second compound 10 µM)?
**A.** < 31.6 nM

**Q.** What about the viability, T/C [1] of the same compound?
**A.** 99.9%

**Q.** What about the viability, T/C (second compound 0.0316 µM, first compound 0.1 µM) of the same compound?
**A.** 78.8%

**Q.** And the viability, T/C [2]?
**A.** 83.2%

**Q.** What about the viability, T/C (second compound 0.0316 µM, first compound 1 µM) of the same compound?
**A.** 83.6%

**Q.** What about the viability, T/C (second compound 0.0316 µM, first compound 3.16 µM) of the same compound?
**A.** 60.9%

**Q.** What about the viability, T/C (second compound 0.0316 µM, first compound 10 µM) of the same compound?
**A.** 53%

**Q.** And the viability, T/C [3]?
**A.** 80.7%

**Q.** And the viability, T/C (second compound 0.1 µM, first compound 0.1 µM)?
**A.** 62.8%

**Q.** What about the viability, T/C [4] of the same compound?
**A.** 62.7%

**Q.** What about the viability, T/C (second compound 0.1 µM, first compound 1 µM) of the same compound?
**A.** 60.7%

**Q.** What about the viability, T/C (second compound 0.1 µM, first compound 3.16 µM) of the same compound?
**A.** 53%

**Q.** What about the viability, T/C (second compound 0.1 µM, first compound 10 µM) of the same compound?
**A.** 45.9%

**Q.** And the viability, T/C [5]?
**A.** 64.6%

**Q.** And the viability, T/C (second compound 0.316 µM, first compound 0.1 µM)?
**A.** 56.8%

**Q.** What about the viability, T/C [6] of the same compound?
**A.** 64.6%

**Q.** And the viability, T/C (second compound 0.316 µM, first compound 1 µM)?
**A.** 62.9%

**Q.** What about the viability, T/C (second compound 0.316 µM, first compound 3.16 µM) of the same compound?
**A.** 50.8%

**Q.** What about the viability, T/C (second compound 0.316 µM, first compound 10 µM) of the same compound?
**A.** 48.4%

**Q.** And the viability, T/C [7]?
**A.** 46.3%

**Q.** What about the viability, T/C (second compound 1 µM, first compound 0.1 µM) of the same compound?
**A.** 48.4%

**Q.** What about the viability, T/C [8] of the same compound?
**A.** 43.5%

**Q.** And the viability, T/C (second compound 1 µM, first compound 1 µM)?
**A.** 47.9%

**Q.** And the viability, T/C (second compound 1 µM, first compound 3.16 µM)?
**A.** 50%

**Q.** What about the viability, T/C (second compound 1 µM, first compound 10 µM) of the same compound?
**A.** 49%

**Q.** And the viability, T/C [9]?
**A.** 44.2%

**Q.** And the viability, T/C (second compound 3.16 µM, first compound 0.1 µM)?
**A.** 39.2%

**Q.** And the viability, T/C [10]?
**A.** 38.3%

**Q.** What about the viability, T/C (second compound 3.16 µM, first compound 1 µM) of the same compound?
**A.** 38.2%

**Q.** What about the viability, T/C (second compound 3.16 µM, first compound 3.16 µM) of the same compound?
**A.** 43.5%

**Q.** And the viability, T/C (second compound 3.16 µM, first compound 10 µM)?
**A.** 38.9%

**Q.** What about the viability, T/C [11] of the same compound?
**A.** 33.1%

**Q.** What about the viability, T/C (second compound 10 µM, first compound 0.1 µM) of the same compound?
**A.** 42.3%

**Q.** What about the viability, T/C [12] of the same compound?
**A.** 34.7%

**Q.** What about the viability, T/C (second compound 10 µM, first compound 1 µM) of the same compound?
**A.** 43.8%

**Q.** What about the viability, T/C (second compound 10 µM, first compound 3.16 µM) of the same compound?
**A.** 49.5%

**Q.** What about the viability, T/C (second compound 10 µM, first compound 10 µM) of the same compound?
**A.** 38.9%
